Converted amounts (≈) assume the structure as drawn.
Legend:
Type in all cases: functional
Streptococcus pneumoniae = assay: Inhibitory activity against Streptococcus pneumoniae UC9912
[1] = tested on: Staphylococcus epidermidis; assay: Inhibitory activity against Methicillin-resistant Staphylococcus epidermidis UC12084
Mus musculus [2] = assay: Dose required to cure 50% of Staphylococcus aureus infected mice in the presence of eperezolid when orally administered; value ranges from 0.1-6.6; settings: po
Mus musculus [3] = assay: Dose required to cure 50% of Staphylococcus aureus infected mice when orally administered; value ranges 1.1-2.7; settings: po
Mus musculus [4] = assay: Dose(orally administered) required to cure 50% of Staphylococcus aureus infected mice; settings: po
Mus musculus [5] = assay: Dose(orally administered) required to cure 50% of Staphylococcus aureus infected mice in the presence of vancomycin; settings: po
Enterococcus faecalis = assay: Inhibitory activity against Enterococcus faecalis UC9217
Haemophilus influenzae = assay: Inhibitory activity against Haemophilus influenzae UC30063
Moraxella catarrhalis = assay: Inhibitory activity against Moraxella catarrhalis UC30610
Staphylococcus aureus [6] = assay: Inhibitory activity against Methicillin-resistant Staphylococcus aureus UC6685
Staphylococcus aureus [7] = assay: Inhibitory activity against Methicillin-susceptible Staphylococcus aureus UC9213
Mus musculus [8] = assay: Dose required to cure 50% of Staphylococcus aureus infected mice in the presence of eperezolid when orally administered; value ranges from 1.1-2.8; settings: po
Mus musculus [9] = assay: Dose required to cure 50% of Staphylococcus aureus infected mice when orally administered; settings: po
Mus musculus [10] = assay: Dose required to cure 50% of Staphylococcus aureus infected mice when administered orally; settings: po
Mus musculus [11] = assay: Dose required to cure 50% of Staphylococcus aureus infected mice in the presence of eperezolid when administered orally.; settings: po
Mus musculus [12] = assay: Dose required to cure 50% of Staphylococcus aureus infected mice in the presence of vancomycin when orally administered; value ranges from 0.5-1.5; settings: po
Mus musculus [13] = assay: Dose(orally administered) required to cure 50% of Staphylococcus aureus infected mice in the presence of eperezolid; settings: po
Mus musculus [14] = assay: Dose required to cure 50% of Staphylococcus aureus infected mice when administered orally; value ranges from 3.1-13.1; settings: po
Mus musculus [15] = assay: Dose required to cure 50% of Staphylococcus aureus infected mice in the presence of vancomycin when administered orally; value arnges from 1.0-3.2; settings: po
Mus musculus [16] = assay: Dose(orally administered) required to cure 50% of Staphylococcus aureus infected mice in the presence of eperezolid (95% confidence limits); settings: po
Mus musculus [17] = assay: Dose administered required to cure 50% of Staphylococcus aureus infected mice when administered orally; value ranges from 2.0-4.9; settings: po
Mus musculus [18] = assay: Dose required to cure 50% of Staphylococcus aureus infected mice in the presence of eperezolid when administered orally;value ranges from 1.9-6.6; settings: po
Mus musculus [19] = assay: Dose required to cure 50% of Staphylococcus aureus infected mice in the presence of eperezolid when orally administered; value ranges from 2.2-2.9; settings: po
Mus musculus [20] = assay: Dose required to cure 50% of Staphylococcus aureus infected mice when orally administered; value ranges from 3.5-9.1; settings: po
Mus musculus [21] = assay: Dose required to cure 50% of Staphylococcus aureus infected mice in the presence of eperezolid when administered orally; value ranges from 1.8-7.0; settings: po
Mus musculus [22] = assay: Dose required to cure 50% of Staphylococcus aureus infected mice when aministered orally; value ranges from 0.8-2.0; settings: po
Mus musculus [23] = assay: Dose required to cure 50% of Staphylococcus aureus infected mice in the presence of eperezolid when administered orally; value ranges from 1.8-4.4; settings: po

Row | Compound | MIC (Streptococcus pneumoniae) [µg/mL] | MIC [1] [µg/mL] | ED50 (Mus musculus [4]) [mg/kg/day] | MIC (Enterococcus faecalis) [µg/mL] | MIC (Haemophilus influenzae) [µg/mL] | MIC (Moraxella catarrhalis) [µg/mL] | MIC (Staphylococcus aureus [6]) [µg/mL] | MIC (Staphylococcus aureus [7]) [µg/mL] | further results
1 | CC(=O)NC[C@H]1CN(c2ccc(-n3ccc(C#N)c3)c(F)c2)C(=O)O1 | ≤ 0.125 | ≤ 0.125 |  |  |  |  |  |  | ED50 (Mus musculus [2]): 4 mg/kg/day; ED50 (Mus musculus [3]): 1.9 mg/kg/day
2 | CC(=O)NC[C@H]1CN(c2ccc(-n3ccc(C=O)c3)c(F)c2)C(=O)O1 | < 0.06 | 0.125 (≈ 0.362 µM) | > 20 |  |  |  |  |  | ED50 (Mus musculus [5]): 1.7 mg/kg/day
3 | CC(=O)NC[C@H]1CN(c2ccc(-n3cccn3)c(F)c2)C(=O)O1 | 1 (≈ 3.14 µM) | 1 (≈ 3.14 µM) |  | 2 (≈ 6.28 µM) | 32 (≈ 101 µM) | 16 (≈ 50.3 µM) | 2 (≈ 6.28 µM) | 2 (≈ 6.28 µM) | ED50 (Mus musculus [8]): 1.8 mg/kg/day; ED50 (Mus musculus [9]): > 20 mg/kg/day
4 | CC(=O)NC[C@H]1CN(c2ccc(-n3cnc(Cl)n3)c(F)c2)C(=O)O1 | < 0.125 | 0.5 (≈ 1.41 µM) | 9.4 | 2 (≈ 5.65 µM) | 16 (≈ 45.2 µM) | 2 (≈ 5.65 µM) | 2 (≈ 5.65 µM) | 4 (≈ 11.3 µM) | ED50 (Mus musculus [5]): 5 mg/kg/day
5 | CC(=O)NC[C@H]1CN(c2ccc(-n3ccc(C(C)=O)c3)c(F)c2)C(=O)O1 | 0.25 (≈ 0.696 µM) | 0.5 (≈ 1.39 µM) |  | 1 (≈ 2.78 µM) | 16 (≈ 44.5 µM) | 4 (≈ 11.1 µM) | 1 (≈ 2.78 µM) | 2 (≈ 5.57 µM) | ED50 (Mus musculus [10]): 6.5 mg/kg/day; ED50 (Mus musculus [11]): 10 mg/kg/day
6 | CC(=O)NC[C@H]1CN(c2ccc(-n3ccc(CO)c3)c(F)c2)C(=O)O1 | 0.25 (≈ 0.72 µM) | 0.25 (≈ 0.72 µM) |  | 1 (≈ 2.88 µM) | 4 (≈ 11.5 µM) | 2 (≈ 5.76 µM) | 1 (≈ 2.88 µM) | 1 (≈ 2.88 µM) | ED50 (Mus musculus [12]): 0.9 mg/kg/day; ED50 (Mus musculus [9]): > 20 mg/kg/day
7 | CC(=O)NC[C@H]1CN(c2ccc(-n3cc(C=O)nn3)c(F)c2)C(=O)O1 | 0.25 (≈ 0.72 µM) | < 0.125 | > 20 | 0.5 (≈ 1.44 µM) | 4 (≈ 11.5 µM) | 2 (≈ 5.76 µM) | 0.25 (≈ 0.72 µM) | 0.5 (≈ 1.44 µM) | ED50 (Mus musculus [13]): 1.1 mg/kg/day
8 | CC(=O)NC[C@H]1CN(c2ccc(-n3cncn3)c(F)c2)C(=O)O1 | 1 (≈ 3.13 µM) | 1 (≈ 3.13 µM) |  | 4 (≈ 12.5 µM) | 32 (≈ 100 µM) | 16 (≈ 50.1 µM) | 4 (≈ 12.5 µM) | 4 (≈ 12.5 µM) | ED50 (Mus musculus [14]): 5.7 mg/kg/day; ED50 (Mus musculus [15]): 2.4 mg/kg/day
9 | CCOC(=O)/C=C/c1ccn(-c2ccc(N3C[C@H](CNC(C)=O)OC3=O)cc2F)c1 | 0.5 (≈ 1.2 µM) | 2 (≈ 4.81 µM) | > 20 | 2 (≈ 4.81 µM) | 32 (≈ 77 µM) | 4 (≈ 9.63 µM) | 4 (≈ 9.63 µM) | 4 (≈ 9.63 µM) | ED50 (Mus musculus [16]): 2.1 mg/kg/day
10 | CC(=O)NC[C@H]1CN(c2ccc(-n3ncc(C#N)n3)c(F)c2)C(=O)O1 | ≤ 0.125 | ≤ 0.125 |  | 0.5 (≈ 1.45 µM) | 8 (≈ 23.2 µM) | 2 (≈ 5.81 µM) | 0.5 (≈ 1.45 µM) | 0.5 (≈ 1.45 µM) | ED50 (Mus musculus [17]): 3.2 mg/kg/day; ED50 (Mus musculus [18]): 3.8 mg/kg/day
11 | CC(=O)NC[C@H]1CN(c2ccc(-n3ccc(/C=N\O)c3)c(F)c2)C(=O)O1 | ≤ 0.125 |  |  |  |  |  |  |  | ED50 (Mus musculus [19]): 2.6 mg/kg/day; ED50 (Mus musculus [20]): 5.5 mg/kg/day
12 | CC(=O)NC[C@H]1CN(c2ccc(-n3cc(C#N)cn3)c(F)c2)C(=O)O1 | ≤ 0.125 | 0.25 (≈ 0.728 µM) |  |  |  |  |  |  | ED50 (Mus musculus [21]): 3.3 mg/kg/day; ED50 (Mus musculus [22]): 1.2 mg/kg/day
13 | COC(=O)c1ccn(-c2ccc(N3C[C@H](CNC(C)=O)OC3=O)cc2F)c1 | 0.25 (≈ 0.666 µM) | 0.5 (≈ 1.33 µM) |  | 1 (≈ 2.66 µM) | > 16 | 16 (≈ 42.6 µM) | 2 (≈ 5.33 µM) | 2 (≈ 5.33 µM) | ED50 (Mus musculus [10]): > 20 mg/kg/day; ED50 (Mus musculus [23]): 2.9 mg/kg/day

— ChEMBL document CHEMBL1132968, “Substituent effects on the antibacterial activity of nitrogen-carbon-linked (azolylphenyl)oxazolidinones with expanded activity against the fastidious gram-negative organisms Haemophilus influenzae and Moraxella catarrhalis” (2000)
